Measurements as given in patent US20190060428A1, “FORMULATIONS FOR NEOPLASIA VACCINES AND METHODS OF PREPARING THEREOF” (The Broad Institue Inc., priority 2015, published 2019).
“And” between values parts separate entries of the source, which are not always exact repeats. Equal values may be shown once.

Experiments:
[1] = Solubility of peptides in DMSO/D5W/5 mM succinate formulation; settings: pH 6
[2] = Short-term room temperature stability of Pool 3 mixed with Hiltonol (RP-HPLC); assay type: physicochemical
Description: A peptide pool (Pool 3) consisting of the five peptides shown in Table 6 below was prepared by dissolution in DMSO and dilution with D5W/Succinate (2 mM) to 2 mg/ml and pooling to a final peptide concentration of 400 μg per ml and a final DMSO concentration of 4%. After preparation, peptides were filtered with a 25 mm Pall PES filter (Cat#4612) and dispensed into Nunc Cryo vials (#375418) in one ml aliquots.
Three samples were prepared by mixing 0.75 ml of Pool3 with 0.25 ml Hiltonol® as planned for the dosage form preparation. The samples were then left at room temperature for 0, 4 and 6 hours and analyzed by RP-HPLC (Table 7). […] As slight increase in a second peak associated with peptide CS6919 was noted, increasing from 14% to 17% and 18% at 4 and 6 hours, respectively. […] Recovery of all peptides was above 90%, indicating no breakdown and loss of any peptides in the final dosage form after 6 hour room temperature incubation.

[3] = pH of peptide solutions in DMSO/D5W, with succinate, and with Hiltonol; assay type: physicochemical

H-AVRSPGSPLILEVGSGSGAIS-OH
solubility [1]: > 2000 µg/mL

H-AHRQGEKQHLLPVFSRLALRLPWRHSVQL-OH [CS6941]
% Impurity ([2]; Pool 3 + Hiltonol, 4 Hours RT): 0%
% Purity ([2]; Pool 3 + Hiltonol, 4 Hours RT): 100%
Main Peak ([2]; Pool 3 + Hiltonol, 4 Hours RT): 6676.54
Total Impurities ([2]; Pool 3 + Hiltonol, 4 Hours RT): 0
Total Peak ([2]; Pool 3 + Hiltonol, 4 Hours RT): 6676.54
% Impurity ([2]; Pool 3 + Hiltonol, 6 Hours RT): 0%
% Purity ([2]; Pool 3 + Hiltonol, 6 Hours RT): 100%
Main Peak ([2]; Pool 3 + Hiltonol, 6 Hours RT): 7158.29
Total Impurities ([2]; Pool 3 + Hiltonol, 6 Hours RT): 0
Total Peak ([2]; Pool 3 + Hiltonol, 6 Hours RT): 7158.29
% Impurity ([2]; T0 Pool 3 + Hiltonol, RP-HPLC): 0%
% Purity ([2]; T0 Pool 3 + Hiltonol, RP-HPLC): 100%
Main Peak ([2]; T0 Pool 3 + Hiltonol, RP-HPLC): 7140.91
Total Impurities ([2]; T0 Pool 3 + Hiltonol, RP-HPLC): 0
Total Peak ([2]; T0 Pool 3 + Hiltonol, RP-HPLC): 7140.91
pH of peptides in DMSO/D5W [3]: 3.92
pH of peptides in DMSO/D5W/5mM S. Succinate spike [3]: 6.49
pH of peptides in DMSO/D5W/5nnM Succinate and Hiltonol [3]: 6.78

H-ETYSRSFYPEHSIKEWLIGMELVFV-OH
solubility [1]: < 2000 µg/mL

H-LVDQWRWGVFSGHTPPSRYNFDWWY-OH
solubility [1]: < 2000 µg/mL

H-DPNKYPVPENWLYKEAHQLFLE-OH
solubility [1]: > 2000 µg/mL

H-LAALCPASRALEEKKGNYVVTDH-OH
solubility [1]: > 2000 µg/mL

H-LCPASRALEEKKGNYVVTDHGS-OH
solubility [1]: > 2000 µg/mL

H-PAAGDFIRFRFFQLLRLERFF-OH
solubility [1]: < 2000 µg/mL

H-SKRGVGAKTLLLPDPFLFWPCLEGTRRSL-OH [CS6934]
% Impurity ([2]; Pool 3 + Hiltonol, 4 Hours RT): 3.06%
% Purity ([2]; Pool 3 + Hiltonol, 4 Hours RT): 96.94%
Main Peak ([2]; Pool 3 + Hiltonol, 4 Hours RT): 5842.22
Total Impurities ([2]; Pool 3 + Hiltonol, 4 Hours RT): 184.46
Total Peak ([2]; Pool 3 + Hiltonol, 4 Hours RT): 6026.68
% Impurity ([2]; Pool 3 + Hiltonol, 6 Hours RT): 3.41%
% Purity ([2]; Pool 3 + Hiltonol, 6 Hours RT): 96.59%
Main Peak ([2]; Pool 3 + Hiltonol, 6 Hours RT): 6268.16
Total Impurities ([2]; Pool 3 + Hiltonol, 6 Hours RT): 221.46
Total Peak ([2]; Pool 3 + Hiltonol, 6 Hours RT): 6489.62
% Impurity ([2]; T0 Pool 3 + Hiltonol, RP-HPLC): 3.83%
% Purity ([2]; T0 Pool 3 + Hiltonol, RP-HPLC): 96.17%
Main Peak ([2]; T0 Pool 3 + Hiltonol, RP-HPLC): 6147.14
Total Impurities ([2]; T0 Pool 3 + Hiltonol, RP-HPLC): 244.49
Total Peak ([2]; T0 Pool 3 + Hiltonol, RP-HPLC): 6391.63
pH of peptides in DMSO/D5W [3]: 3.86
pH of peptides in DMSO/D5W/5mM S. Succinate spike [3]: 6.57
pH of peptides in DMSO/D5W/5nnM Succinate and Hiltonol [3]: 6.79

H-HPEFANPDSMEYISDVVDEVIQN-OH
solubility [1]: > 2000 µg/mL

H-PETGEIQVKTFLDREQRESYELKV-OH
solubility [1]: > 2000 µg/mL

H-VAGLAASGLHGSAWLVPGEQPVSGPHHGKQ-OH [CS6931]
% Impurity ([2]; Pool 3 + Hiltonol, 4 Hours RT): 3.02%
% Purity ([2]; Pool 3 + Hiltonol, 4 Hours RT): 96.98%
Main Peak ([2]; Pool 3 + Hiltonol, 4 Hours RT): 8523.53
Total Impurities ([2]; Pool 3 + Hiltonol, 4 Hours RT): 265.54
Total Peak ([2]; Pool 3 + Hiltonol, 4 Hours RT): 8789.07
% Impurity ([2]; Pool 3 + Hiltonol, 6 Hours RT): 3.21%
% Purity ([2]; Pool 3 + Hiltonol, 6 Hours RT): 96.79%
Main Peak ([2]; Pool 3 + Hiltonol, 6 Hours RT): 9387.81
Total Impurities ([2]; Pool 3 + Hiltonol, 6 Hours RT): 311.37
Total Peak ([2]; Pool 3 + Hiltonol, 6 Hours RT): 9699.18
% Impurity ([2]; T0 Pool 3 + Hiltonol, RP-HPLC): 2.16%
% Purity ([2]; T0 Pool 3 + Hiltonol, RP-HPLC): 97.84%
Main Peak ([2]; T0 Pool 3 + Hiltonol, RP-HPLC): 9014.82
Total Impurities ([2]; T0 Pool 3 + Hiltonol, RP-HPLC): 198.6
Total Peak ([2]; T0 Pool 3 + Hiltonol, RP-HPLC): 9213.42
pH of peptides in DMSO/D5W [3]: 3.80
pH of peptides in DMSO/D5W/5mM S. Succinate spike [3]: 6.42
pH of peptides in DMSO/D5W/5nnM Succinate and Hiltonol [3]: 6.66

H-PIDTSKTDPTVLLFMESQYSQLGQD-OH
solubility [1]: > 2000 µg/mL

H-ESKLFGDPDEFSLAHLLEPFRQYYL-OH
solubility [1]: < 2000 µg/mL

H-GALGAVGATKVPRNQDWLGVSRQLRTKA-OH
solubility [1]: > 2000 µg/mL

H-LDVLQRPLSPGNSEFLTATANYSK-OH
solubility [1]: < 2000 µg/mL

H-ALSLTPGLRIGPSGLFLVFLAESAVDKGHPNRS-OH [CS7410]
pH of peptides in DMSO/D5W [3]: 3.99
pH of peptides in DMSO/D5W/5mM S. Succinate spike [3]: 6.46
pH of peptides in DMSO/D5W/5nnM Succinate and Hiltonol [3]: 6.88

H-KLAWRGRISSSGCPSMTSPPSPMFGMTLHT-OH [CS6919]
% Impurity ([2]; Pool 3 + Hiltonol, 4 Hours RT): 17% and 17.09%
% Purity ([2]; Pool 3 + Hiltonol, 4 Hours RT): 82.91%
Main Peak ([2]; Pool 3 + Hiltonol, 4 Hours RT): 7238.56
Total Impurities ([2]; Pool 3 + Hiltonol, 4 Hours RT): 1492.4
Total Peak ([2]; Pool 3 + Hiltonol, 4 Hours RT): 8730.96
% Impurity ([2]; Pool 3 + Hiltonol, 6 Hours RT): 18% and 18.14%
% Purity ([2]; Pool 3 + Hiltonol, 6 Hours RT): 81.86%
Main Peak ([2]; Pool 3 + Hiltonol, 6 Hours RT): 7688.89
Total Impurities ([2]; Pool 3 + Hiltonol, 6 Hours RT): 1703.9
Total Peak ([2]; Pool 3 + Hiltonol, 6 Hours RT): 9392.79
% Impurity ([2]; T0 Pool 3 + Hiltonol, RP-HPLC): 14% and 13.9%
% Purity ([2]; T0 Pool 3 + Hiltonol, RP-HPLC): 86.1%
Main Peak ([2]; T0 Pool 3 + Hiltonol, RP-HPLC): 7786.28
Total Impurities ([2]; T0 Pool 3 + Hiltonol, RP-HPLC): 1256.72
Total Peak ([2]; T0 Pool 3 + Hiltonol, RP-HPLC): 9043
pH of peptides in DMSO/D5W [3]: 4.38
pH of peptides in DMSO/D5W/5mM S. Succinate spike [3]: 6.74
pH of peptides in DMSO/D5W/5nnM Succinate and Hiltonol [3]: 6.99

H-AESAQRQGPLGGGEQSANEF-OH [CS7417]
pH of peptides in DMSO/D5W [3]: 3.82
pH of peptides in DMSO/D5W/5mM S. Succinate spike [3]: 6.28
pH of peptides in DMSO/D5W/5nnM Succinate and Hiltonol [3]: 6.5

H-WDGPPENDMLLKEICGSLIP-OH [CS7432]
pH of peptides in DMSO/D5W [3]: 3.72
pH of peptides in DMSO/D5W/5mM S. Succinate spike [3]: 6.22
pH of peptides in DMSO/D5W/5nnM Succinate and Hiltonol [3]: 6.45

H-LLTDRNTSGTTFTLLGVSDYPELQVP-OH [CS7409]
pH of peptides in DMSO/D5W [3]: 3.86
pH of peptides in DMSO/D5W/5mM S. Succinate spike [3]: 6.32
pH of peptides in DMSO/D5W/5nnM Succinate and Hiltonol [3]: 6.62

H-PPYPYSSPSLVLPTEPHTPKSLQQPGLPS-OH [CS6715]
pH of peptides in DMSO/D5W [3]: 4.11

H-SLPKSFKRKIFVVSATKGVPAGNSD-OH
solubility [1]: > 2000 µg/mL

H-GTYLQGTASALSQSQERPPSVNRVPPSSPSSQE-OH [CS6725]
pH of peptides in DMSO/D5W [3]: 3.95

H-VTLNDMKARQKALVRERERQLA-OH
solubility [1]: > 2000 µg/mL

H-ASRALEEKKGNYVVTDHGSCVRA-OH
solubility [1]: > 2000 µg/mL

H-AESAQRQGPNGGGEQSANEF-OH [CS7416]
% Impurity ([2]; Pool 3 + Hiltonol, 4 Hours RT): 2.56%
% Purity ([2]; Pool 3 + Hiltonol, 4 Hours RT): 97.44%
Main Peak ([2]; Pool 3 + Hiltonol, 4 Hours RT): 5669.85
Total Impurities ([2]; Pool 3 + Hiltonol, 4 Hours RT): 148.82
Total Peak ([2]; Pool 3 + Hiltonol, 4 Hours RT): 5818.67
% Impurity ([2]; Pool 3 + Hiltonol, 6 Hours RT): 2.1%
% Purity ([2]; Pool 3 + Hiltonol, 6 Hours RT): 97.9%
Main Peak ([2]; Pool 3 + Hiltonol, 6 Hours RT): 6197.48
Total Impurities ([2]; Pool 3 + Hiltonol, 6 Hours RT): 132.83
Total Peak ([2]; Pool 3 + Hiltonol, 6 Hours RT): 6330.31
% Impurity ([2]; T0 Pool 3 + Hiltonol, RP-HPLC): 2.35%
% Purity ([2]; T0 Pool 3 + Hiltonol, RP-HPLC): 97.65%
Main Peak ([2]; T0 Pool 3 + Hiltonol, RP-HPLC): 5988.42
Total Impurities ([2]; T0 Pool 3 + Hiltonol, RP-HPLC): 143.98
Total Peak ([2]; T0 Pool 3 + Hiltonol, RP-HPLC): 6132.4
pH of peptides in DMSO/D5W [3]: 3.91
pH of peptides in DMSO/D5W/5mM S. Succinate spike [3]: 6.31
pH of peptides in DMSO/D5W/5nnM Succinate and Hiltonol [3]: 6.54

H-SKLPYPVAKSGKRALARGPAPTEKTPHSGAQLG-OH [CS6719]
pH of peptides in DMSO/D5W [3]: 3.94

H-SHKLESIKEITNFKDAKQLL-OH
solubility [1]: > 2000 µg/mL

H-LRVFIGNIAVNHAPVSLRPGLGLPPGAPPGTVP-OH [CS7412]
pH of peptides in DMSO/D5W [3]: 4.24
pH of peptides in DMSO/D5W/5mM S. Succinate spike [3]: 6.61
pH of peptides in DMSO/D5W/5nnM Succinate and Hiltonol [3]: 6.96

H-LAALCPASRALEEKKGNYVVTDHGS-OH
solubility [1]: > 2000 µg/mL
